Measured values: patent US9290451B2 (Hoffmann-La Roche Inc., priority 2011, dated 2016)
Like-named read-outs stand apart in the source and are kept apart here.

Legend:
human CB1 receptors = human CB1 receptors (Homo sapiens (Human), UniProt P21554); assay: cAMP assay, CHO cells expressing human CB1 receptors; format: cell-based
Summary of the method: (§1)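 EC50 values come from a TR-FRET cAMP read-out (standard curve 10 μM–0.13 nM cAMP) after 30 min compound exposure at 30 °C in IBMX (1 mM)-containing Krebs Ringer bicarbonate buffer, using CHO cells carrying human CB1 or CB2 receptors.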

human CB2 receptors = human CB2 receptors (Homo sapiens (Human), UniProt P34972); assay: cAMP assay, CHO cells expressing human CB2 receptors; format: cell-based
Summary of the method: as §1

[1] = CHO cells expressing human CB1, cAMP, read-out: human CB1 EC50
[2] = CHO cells expressing human CB2, cAMP, read-out: human CB2 EC50

human CB2 receptors, sequence (P34972 whole entry): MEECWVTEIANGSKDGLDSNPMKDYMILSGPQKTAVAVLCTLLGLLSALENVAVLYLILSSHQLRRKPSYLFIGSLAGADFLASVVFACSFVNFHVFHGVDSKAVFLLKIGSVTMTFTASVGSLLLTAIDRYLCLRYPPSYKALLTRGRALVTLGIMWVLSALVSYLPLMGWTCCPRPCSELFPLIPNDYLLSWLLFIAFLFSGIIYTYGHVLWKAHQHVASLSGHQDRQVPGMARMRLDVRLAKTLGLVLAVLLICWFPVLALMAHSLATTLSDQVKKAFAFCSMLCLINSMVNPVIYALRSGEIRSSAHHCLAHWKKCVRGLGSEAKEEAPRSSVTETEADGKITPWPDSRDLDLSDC
human CB1 receptors, sequence (P21554 whole entry): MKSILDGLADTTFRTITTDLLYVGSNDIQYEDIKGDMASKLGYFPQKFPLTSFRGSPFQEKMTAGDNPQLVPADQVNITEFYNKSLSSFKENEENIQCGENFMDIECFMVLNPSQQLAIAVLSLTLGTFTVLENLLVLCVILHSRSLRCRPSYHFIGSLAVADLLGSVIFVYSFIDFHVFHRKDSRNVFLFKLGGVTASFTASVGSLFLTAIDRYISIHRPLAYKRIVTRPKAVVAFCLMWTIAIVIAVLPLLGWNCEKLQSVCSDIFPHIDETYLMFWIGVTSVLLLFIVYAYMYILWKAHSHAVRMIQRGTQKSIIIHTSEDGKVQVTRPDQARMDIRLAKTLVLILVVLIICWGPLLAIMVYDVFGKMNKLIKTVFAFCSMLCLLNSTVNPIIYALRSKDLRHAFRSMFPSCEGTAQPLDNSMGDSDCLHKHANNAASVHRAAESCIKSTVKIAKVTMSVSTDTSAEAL

| SMILES | EC50 (human CB1 receptors; [1]) | EC50 (human CB2 receptors; [2]) | EC50 (human CB1 receptors) | EC50 (human CB2 receptors) |
| --- | --- | --- | --- | --- |
| CSCC[C@H](NC(=O)c1ccc(N2CC(F)(F)C2)c(OCC2CC2)n1)C(N)=O [Example 342, 6-Cyclopropylmethoxy-5-(3,3-difluoro-azetidin-1-yl)-pyridine-2-carboxylic acid ((S)-1-carbamoyl-3-methylsulfanyl-propyl)-amide] | > 10 µM | 2.8 nM |  |  |
| Cc1nc([C@H](CC2CC2)NC(=O)c2cccc(-c3ccc(F)c(Cl)c3)n2)no1 [Example 343, 6-(3-Chloro-4-fluoro-phenyl)-pyridine-2-carboxylic acid [(S)-2-cyclopropyl-1-(5-methyl-[1,2,4]oxadiazol-3-yl)-ethyl]-amide] | > 10 µM | 3.5 nM |  |  |
| CC(C)C[C@@H](CNc1ccc([N+](=O)[O-])c2nonc12)NC(=O)c1ccc(N2CCCC2)c(OCC2CC2)n1 [Example 344, 6-Cyclopropylmethoxy-5-pyrrolidin-1-yl-pyridine-2-carboxylic acid {(S)-3-methyl-1-[(7-nitro-benzo[1,2,5]oxadiazol-4-ylamino)-methyl]-butyl}-amide] | > 10 µM | 25.6 nM |  |  |
| CS(=O)(=O)CC[C@H](NC(=O)c1ccc(N2CC(F)(F)C2)c(OCC2CC2)n1)C(N)=O [Example 345, 6-Cyclopropylmethoxy-5-(3,3-difluoro-azetidin-1-yl)-pyridine-2-carboxylic acid ((S)-1-carbamoyl-3-methanesulfonyl-propyl)-amide] | > 10 µM | 295 nM |  |  |
| CC(C)CSc1nc(C(=O)N[C@@H](CC(C)C)C(N)=O)ccc1C1CC1 [Example 346, 5-Cyclopropyl-6-isobutylsulfanyl-pyridine-2-carboxylic acid ((S)-1-carbamoyl-3-methyl-butyl)-amide] | > 10 µM | 11 nM |  |  |
| Cc1nc([C@H](CC2CC2)NC(=O)c2cccc(-c3cccc(F)c3)n2)no1 [Example 347, 6-(3-Fluoro-phenyl)-pyridine-2-carboxylic acid [(S)-2-cyclopropyl-1-(5-methyl-[1,2,4]oxadiazol-3-yl)-ethyl]-amide] | > 10 µM | 50 nM |  |  |
| Cc1nc([C@H](CC2CC2)NC(=O)c2cccc(-c3ccc(F)c(C(F)(F)F)c3)n2)no1 [Example 348, 6-(4-Fluoro-3-trifluoromethyl-phenyl)-pyridine-2-carboxylic acid [(S)-2-cyclopropyl-1-(5-methyl-[1,2,4]oxadiazol-3-yl)-ethyl]-amide] | > 10 µM | 24.6 nM |  |  |
| CC(C)(CCS(C)(=O)=O)NC(=O)c1ccc(C2CC2)c(OCC2CC2)n1 [Example 349, 5-Cyclopropyl-6-cyclopropylmethoxy-pyridine-2-carboxylic acid (3-methanesulfonyl-1,1-dimethyl-propyl)-amide] | > 10 µM | 477 nM |  |  |
| Cc1cnc(C(C)(C)NC(=O)c2ccc(C3CC3)c(OCC3CC3)n2)s1 [Example 350, 5-Cyclopropyl-6-cyclopropylmethoxy-pyridine-2-carboxylic acid [1-methyl-1-(5-methyl-thiazol-2-yl)-ethyl]-amide] | > 10 µM | 3.6 nM |  |  |
| CC(C)C[C@H](NC(=O)c1ccc(C2CC2)c(S(=O)(=O)CC(C)C)n1)C(N)=O [Example 351, 5-Cyclopropyl-6-(2-methyl-propane-1-sulfonyl)-pyridine-2-carboxylic acid ((S)-1-carbamoyl-3-methyl-butyl)-amide] | > 10 µM | 39.9 nM |  |  |
| Cc1nc([C@H](CC2CC2)NC(=O)c2ccc(C3CC3)c(S(=O)(=O)CC(C)C)n2)no1 [Example 352, 5-Cyclopropyl-6-(2-methyl-propane-1-sulfonyl)-pyridine-2-carboxylic acid [(S)-2-cyclopropyl-1-(5-methyl-[1,2,4]oxadiazol-3-yl)-ethyl]-amide] | > 10 µM | 189 nM |  |  |
| CC(C)C[C@@H](NC(=O)c1ccc(N2CC(F)(F)C2)c(OCC2CC2)n1)c1cccnn1 [Example 354, 6-Cyclopropylmethoxy-5-(3,3-difluoro-azetidin-1-yl)-pyridine-2-carboxylic acid ((R)-3-methyl-1-pyridazin-3-yl-butyl)-amide] | > 10 µM | 14.9 nM |  |  |
| CC(C)C[C@H](NC(=O)c1ccc(N2CC(F)(F)C2)c(OCC2CC2)n1)c1cccnn1 [Example 355, 6-Cyclopropylmethoxy-5-(3,3-difluoro-azetidin-1-yl)-pyridine-2-carboxylic acid ((S)-3-methyl-1-pyridazin-3-yl-butyl)-amide] | > 10 µM | 80.1 nM |  |  |
| CCC(CC)(NC(=O)c1ccc(C2CC2)c(OCC2CC2)n1)C(=O)NCCO [Example 356, 5-Cyclopropyl-6-cyclopropylmethoxy-pyridine-2-carboxylic acid [1-ethyl-1-(2-hydroxy-ethylcarbamoyl)-propyl]-amide] | > 10 µM | 5.2 nM |  |  |
| Cc1nc([C@](C)(CC2CC2)NC(=O)c2ccc(C3CC3)c(OCC3CC3)n2)no1 [Example 357, 5-Cyclopropyl-6-cyclopropylmethoxy-pyridine-2-carboxylic acid [(+)-2-cyclopropyl-1-methyl-1-(5-methyl-[1,2,4]oxadiazol-3-yl)-ethyl]-amide] | 0.199 µM | 1.5 nM |  |  |
| Cc1nc([C@@](C)(CC2CC2)NC(=O)c2ccc(C3CC3)c(OCC3CC3)n2)no1 [Example 358, 5-Cyclopropyl-6-cyclopropylmethoxy-pyridine-2-carboxylic acid [(−)-2-cyclopropyl-1-methyl-1-(5-methyl-[1,2,4]oxadiazol-3-yl)-ethyl]-amide] | 0.489 µM | 4.9 nM |  |  |
| CC(C)(C)NC(=O)c1ccc(N2CC(F)(F)C2)c(OCC2CC2)n1 [Example 359, 6-Cyclopropylmethoxy-5-(3,3-difluoro-azetidin-1-yl)-pyridine-2-carboxylic acid tert-butylamide] | > 10 µM | 6.9 nM |  |  |
| CCOC(=O)C(CC)(CC)NC(=O)c1ccc(C2CC2)c(S(=O)(=O)CC(C)C)n1 [Example 360, 2-{[5-Cyclopropyl-6-(2-methyl-propane-1-sulfonyl)-pyridine-2-carbonyl]-amino}-2-ethyl-butyric acid ethyl ester] | 0.0885 µM | 2.4 nM |  |  |
| CNC(=O)[C@H](CC(C)(C)C)NC(=O)c1ccc(C2CC2)c(S(=O)(=O)CC(C)C)n1 [Example 361, 5-Cyclopropyl-6-(2-methyl-propane-1-sulfonyl)-pyridine-2-carboxylic acid ((S)-3,3-dimethyl-1-methylcarbamoyl-butyl)-amide] | > 10 µM | 42.5 nM |  |  |
| O=C(N[C@H]1CCOC1=O)c1ccc(C2CC2)c(OCC2CC2)n1 [Example 362, 5-Cyclopropyl-6-cyclopropylmethoxy-pyridine-2-carboxylic acid ((S)-2-oxo-tetrahydro-furan-3-yl)-amide] | > 10 µM | 441 nM |  |  |
| CC(C)(C)OC(=O)N(CC1CC1)NC(=O)c1ccc(C2CC2)c(OCC2CC2)n1 [Example 363, N′-(5-Cyclopropyl-6-cyclopropylmethoxy-pyridine-2-carbonyl)-N-cyclopropylmethyl-hydrazinecarboxylic acid tert-butyl ester] | > 10 µM | 38 nM |  |  |
| CNC(=O)[C@@H](NC(=O)c1ccc(C2CC2)c(S(=O)(=O)CC(C)C)n1)C(C)(C)C [Example 364, 5-Cyclopropyl-6-(2-methyl-propane-1-sulfonyl)-pyridine-2-carboxylic acid ((S)-2,2-dimethyl-1-methylcarbamoyl-propyl)-amide] |  |  | > 10 µM | 12.9 nM |
| CC(C)CS(=O)(=O)c1nc(C(=O)N[C@@H](c2cccnc2)C(F)(F)F)ccc1C1CC1 [Example 365, 5-Cyclopropyl-6-(2-methyl-propane-1-sulfonyl)-pyridine-2-carboxylic acid ((S)-2,2,2-trifluoro-1-pyridin-3-yl-ethyl)-amide] | > 10 µM | 13.9 nM |  |  |
| CC(C)C[C@H](NC(=O)c1ccc(C2CC2)c(OCC2CC2)n1)C(=O)OC(C)(C)C [Example 366, (S)-2-[(5-Cyclopropyl-6-cyclopropylmethoxy-pyridine-2-carbonyl)-amino]-4-methyl-pentanoic acid tert-butyl ester] | > 10 µM | 26.4 nM |  |  |
| CCC(CC)(NC(=O)c1ccc(C2CC2)c(S(=O)(=O)CC(C)C)n1)C(=O)NC [Example 367, 5-Cyclopropyl-6-(2-methyl-propane-1-sulfonyl)-pyridine-2-carboxylic acid (1-ethyl-1-methylcarbamoyl-propyl)-amide] | > 10 µM | 195 nM |  |  |
| CC(C)(C)NC(=O)c1ccc(C2CC2)c(OCC2CC2)n1 [Example 368, 5-Cyclopropyl-6-cyclopropylmethoxy-pyridine-2-carboxylic acid tert-butylamide] | > 10 µM | 26.3 nM |  |  |
| CC(C)(C)NC(=O)c1ccc(C2CC2)c(OCC2CCCO2)n1 (stereo not drawn) [Example 369, 5-Cyclopropyl-6-(tetrahydro-furan-2-ylmethoxy)-pyridine-2-carboxylic acid tert-butylamide] | > 10 µM | 12 nM |  |  |
| CC1(NC(=O)c2ccc(N3CC(F)(F)C3)c(OCC3CC3)n2)COC1 [Example 370, 6-Cyclopropylmethoxy-5-(3,3-difluoro-azetidin-1-yl)-pyridine-2-carboxylic acid (3-methyl-oxetan-3-yl)-amide] | > 10 µM | 96.4 nM |  |  |
| O=C(NN1CCCOC1=O)c1ccc(C2CC2)c(OCC2CC2)n1 [Example 371, 5-Cyclopropyl-6-cyclopropylmethoxy-pyridine-2-carboxylic acid (2-oxo-[1,3]oxazinan-3-yl)-amide] | > 10 µM | 436 nM |  |  |
| CC(C)C[C@H](NC(=O)c1ccc(C2CC2)c(OC(C)C(F)(F)F)n1)C(N)=O (stereo partly drawn) [Example 372, 5-Cyclopropyl-6-(2,2,2-trifluoro-1-methyl-ethoxy)-pyridine-2-carboxylic acid ((S)-1-carbamoyl-3-methyl-butyl)-amide] |  |  | > 10 µM | 53.4 nM |
